Test system: MM1.S xenograft
Test: MM1.S multiple myeloma xenograft model
Assay type: in vivo
Settings: single agents (Bortezomib 0.5 mg/kg IP BIW; Pomalidomide 2.5 mg/kg PO 5x/week)

Nc1cccc2c1C(=O)N(C1CCC(=O)NC1=O)C2=O (stereo not shown) [Pomalidomide, reference compound]
tolerability: well tolerated

From publication PMC9810167, “Novel dual LSD1/HDAC6 inhibitor for the treatment of cancer” (PLOS ONE, 2023)
